Laboratory results from US10287267B2, “Isoquinolin-3-yl carboxamides and preparation and use thereof” (Samumed, LLC, priority 2016, dated 2019).
Like-named read-outs stand apart in the source and are kept apart here.

Assays:
[1] = system: α-smooth muscle actin (αSMA) positive LL29 cells; assay: Inhibition of fibrotic process: αSMA in TGF-β1 treated primary human fibroblasts from IPF patients; type: cell-based; details: Homo sapiens, Fibroblast; for EC50: 96 h, Table 8, LL29 fibroblasts from IPF patients, TGF-β1 20 ng/mL, 4 days, dose-response 10 μM to 0.94 nM; for inhibition at 10 µM: read-out: percent value in parentheses beside EC50 >10 μM;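 as to all read-outs here: controls were TGF-β1 stimulated wells with DMSO vehicle (positive) and cells given DMSO alone (negative), cultured in F12 medium with 1% fetal bovine serum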
[2] = system: Wnt pathway (Sp5-Luc reporter, TCF/LEF binding sites) in SW480 colon carcinoma cells; assay: Screening assay for Wnt activity: Sp5-Luc reporter gene assay; type: cell-based, human; details: Homo sapiens; for EC50: Sp5-Luc reporter, SW480 cells, 36 to 48 hours;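 as to all read-outs here: firefly luciferase luminescence read in stably transduced SW480 cells carrying the Sp5 promoter reporter with eight TCF/LEF sites, compounds given in 0.1% DMSO final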
Method: The screening assay for Wnt activity is described as follows.
Following incubation, 15 μl of BriteLite Plus luminescence reagent (Perkin Elmer) was added to each well of the 384-well assay plates. The plates were placed on an orbital shaker for 2 min and then luminescence was quantified using the Envision (Perkin Elmer) plate reader.

recombinant GSK3β kinase = recombinant GSK3β kinase (Homo sapiens (Human), UniProt P49841); assay: GSK3β kinase assay (Ser/Thr 09 peptide Z-lyte FRET); type: biochemical; details: 46 μM ATP, 1 h room temperature;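 also: kinase activity read as coumarin to fluorescein emission ratio, 11-point threefold dilutions from 10 µM to 0.0003 µM in duplicate, unphosphorylated and phosphorylated peptide as 0% and 100% controls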
[3] = target: recombinant DYRK1A kinase (Homo sapiens (Human), UniProt Q13627); assay: DYRK1A kinase assay (Ser/Thr 18 peptide Z-lyte FRET); type: biochemical; details: 30 μM ATP, 1 h room temperature;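 also: Read-out is the coumarin to fluorescein emission ratio, referenced to unphosphorylated (0%) and phosphorylated (100%) Ser/Thr 18 peptide controls, values from dose-response curves by non-linear regression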
[4] = system: SW480 colon carcinoma cells; assay: Cell viability assay (CellTiter-Glo); type: cell-based, human; details: Homo sapiens; for EC50: 96 h, SW480 cells, CellTiter-Glo, four days incubation; for inhibition at 10 µM: SW480, read-out: percent inhibition at 10 μM
IL-6 = IL-6 inhibition in LPS-stimulated human peripheral blood mononuclear cells (HTRF); type: cell-based; details: Homo sapiens, PBMC; for EC50: Table 9, huPBMCs, LPS 50 ng/mL, 22 hours, dose-response starting from 10 μM; for inhibition at 10 µM: read-out: percent value in parentheses beside EC50 >10 μM;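 as to all read-outs here: IL-6 detected by HTRF with an XL665- and Cryptate-labelled anti-IL-6 antibody pair, samples run in duplicate, EC50 obtained from a four-parameter Levenberg-Marquardt curve fit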
Method: After 22 hour incubation, a mixture of anti-IL6 XL665 and anti-IL-6 Cryptate diluted in reconstitution buffer (Catalog #62IL6PEC, Cisbio Inc., Bedford, Mass.) was added to each well. […] All samples were processed in duplicate. […] EC50 was determined using software generated by Dotmatics Limited (Windhill Bishops Stortford Herts, UK) using the Levenberg-Marquardt 4 parameter fitting procedure with finite different gradients.

[5] = system: Tau phosphorylation at Ser396 (pSer396); assay: Tau phosphorylation assay (pSer396 ELISA / western blot) in SH-SY5Y cells; type: cell-based, human; details: Homo sapiens, read-out: pSer396 Tau EC50;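 also: EC50 for reduction of Tau pSer396 in lysed cells, measured by colorimetric ELISA or chemiluminescent western blot, both using the same pSer396 antibody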
[6] = SH-SY5Y cells, overnight (16-18 h) exposure

Chain of recombinant GSK3β kinase (P49841 whole entry): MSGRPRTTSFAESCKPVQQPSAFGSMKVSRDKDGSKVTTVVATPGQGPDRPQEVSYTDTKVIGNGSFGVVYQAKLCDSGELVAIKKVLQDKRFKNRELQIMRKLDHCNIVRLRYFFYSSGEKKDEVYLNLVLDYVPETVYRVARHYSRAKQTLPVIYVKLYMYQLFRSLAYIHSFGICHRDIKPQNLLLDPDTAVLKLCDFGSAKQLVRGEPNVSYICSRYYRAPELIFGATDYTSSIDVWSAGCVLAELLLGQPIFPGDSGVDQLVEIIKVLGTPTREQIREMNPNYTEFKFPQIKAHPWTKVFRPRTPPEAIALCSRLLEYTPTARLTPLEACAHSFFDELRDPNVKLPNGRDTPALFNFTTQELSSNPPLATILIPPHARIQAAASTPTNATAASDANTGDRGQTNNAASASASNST

Compound	EC50 [1] [nM]	EC50 [2] [nM]	EC50 (recombinant GSK3β kinase) [nM]	EC50 [3] [nM]	EC50 [4] [nM]	EC50 (IL-6) [nM]	EC50 [5, 6] [nM]	inhibition at 10 µM [1] [%]	inhibition at 10 µM [4] [%]	inhibition at 10 µM (IL-6) [%]	EC50 ([5]; SH-SY5Y) [nM]	inhibition at 10 µM ([2]; SW480, read-out: percent inhibition at 10 μM) [%]
Cn1cc(-c2ccc3cnc(NC(=O)C4CCN(Cc5ccccc5)CC4)cc3c2)cn1 [Compound 335, 1-Benzyl-N-(6-(1-methyl-1H-pyrazol-4-yl)isoquinolin-3-yl)piperidine-4-carboxamide]	111	993	71	3.8	1120	401	289					
Cn1cc(-c2ccc3cnc(NC(=O)C4CCN(C(=O)CN5CCCC5)CC4)cc3c2)cn1 [Compound 336, N-(6-(1-Methyl-1H-pyrazol-4-yl)isoquinolin-3-yl)-1-(2-(pyrrolidin-1-yl)acetyl)piperidine-4-carboxamide]	> 10000	395	83	2.9	510	569	820	38.4				
Cn1cc(-c2ccc3cnc(NC(=O)[C@@H]4CCCCN4)cc3c2)cn1 [Compound 340, (S)—N-(6-(1-Methyl-1H-pyrazol-4-yl)isoquinolin-3-yl)piperidine-2-carboxamide]	413	932	257	1.9	2230	562	2300					
C[C@H]1COCCN1CC(=O)Nc1cc2cc(-c3cnn(C)c3)ccc2cn1 [Compound 341, (S)—N-(6-(1-Methyl-1H-pyrazol-4-yl)isoquinolin-3-yl)-2-(3-methylmorpholino)acetamide]	2370	4100	89	5.6	> 10000	> 10000	1600		33.9	46.1		
C[C@@H]1COCCN1CC(=O)Nc1cc2cc(-c3cnn(C)c3)ccc2cn1 [Compound 342, (R)—N-(6-(1-Methyl-1H-pyrazol-4-yl)isoquinolin-3-yl)-2-(3-methylmorpholino)acetamide]	948	7220	137	6.5	> 10000	4170	3600		40			
C[C@H]1CN(CC(=O)Nc2cc3cc(-c4cnn(C)c4)ccc3cn2)CCO1 [Compound 343, (S)—N-(6-(1-Methyl-1H-pyrazol-4-yl)isoquinolin-3-yl)-2-(2-methylmorpholino)acetamide]	446	3590	71	9.9	7890	> 10000	2400			47.4		
C[C@@H]1CN(CC(=O)Nc2cc3cc(-c4cnn(C)c4)ccc3cn2)C[C@H](C)O1 [Compound 344, 2-((2R,6S)-2,6-Dimethylmorpholino)-N-(6-(1-methyl-1H-pyrazol-4-yl)isoquinolin-3-yl)acetamide]	> 10000	5470	175	10.5	7680	9130	3500	24.3				
Cn1cc(-c2ccc3cnc(NC(=O)CN4C[C@@H]5C[C@H]4CO5)cc3c2)cn1 [Compound 345, 2-((1S,4S)-2-Oxa-5-azabicyclo[2.2.1]heptan-5-yl)-N-(6-(1-methyl-1H-pyrazol-4-yl)isoquinolin-3-yl)acetamide]	> 10000	2120	26	4	3080	4170	774	38				
Cn1cc(-c2ccc3cnc(NC(=O)CN4C[C@H]5C[C@@H]4CO5)cc3c2)cn1 [Compound 346, 2-((1R,4R)-2-Oxa-5-azabicyclo[2.2.1]heptan-5-yl)-N-(6-(1-methyl-1H-pyrazol-4-yl)isoquinolin-3-yl)acetamide]	965	4360	84	9.9	9660	9440	1800					
Cn1cc(-c2ccc3cnc(NC(=O)CN4C5CCC4COC5)cc3c2)cn1 [Compound 347, 2-(3-Oxa-8-azabicyclo[3.2.1]octan-8-yl)-N-(6-(1-methyl-1H-pyrazol-4-yl)isoquinolin-3-yl)acetamide]	5220	9440	165	10.4	> 10000	> 10000			48.5	4.5	4400	
C[C@@H](C(=O)Nc1cc2cc(-c3cnn(C)c3)ccc2cn1)N1CCOCC1 [Compound 348, (S)—N-(6-(1-Methyl-1H-pyrazol-4-yl)isoquinolin-3-yl)-2-morpholinopropanamide]	1460	> 10000	221	77.5	> 10000	> 10000	2000		22.4	19		36.9
Cn1cc(-c2ccc3cnc(NC(=O)CC4CNCCO4)cc3c2)cn1 (stereo not drawn) [Compound 349, N-(6-(1-Methyl-1H-pyrazol-4-yl)isoquinolin-3-yl)-2-(morpholin-2-yl) acetamide]	145	712	66	6.5	704	307	351					
CN1CCOC(CC(=O)Nc2cc3cc(-c4cnn(C)c4)ccc3cn2)C1 (stereo not drawn) [Compound 350, N-(6-(1-Methyl-1H-pyrazol-4-yl)isoquinolin-3-yl)-2-(4-methylmorpholin-2-yl)acetamide]	100	1000	33	6.2	1080	578	417					
CCN1CCN(CC(=O)Nc2cc3cc(-c4cnn(C)c4)ccc3cn2)CC1 [Compound 351, 2-(4-Ethylpiperazin-1-yl)-N-(6-(1-methyl-1H-pyrazol-4-yl)isoquinolin-3-yl) acetamide]	> 10000	2520	130	13.6	6880	3010	846	38.8				
CC(C)N1CCN(CC(=O)Nc2cc3cc(-c4cnn(C)c4)ccc3cn2)CC1 [Compound 352, 2-(4-Isopropylpiperazin-1-yl)-N-(6-(1-methyl-1H-pyrazol-4-yl)isoquinolin-3-yl)acetamide]	1320	2960	110	21.5	8600	5030	1300					
Cn1cc(-c2ccc3cnc(NC(=O)CN4CCN(C5CC5)CC4)cc3c2)cn1 [Compound 353, 2-(4-Cyclopropylpiperazin-1-yl)-N-(6-(1-methyl-1H-pyrazol-4-yl)isoquinolin-3-yl)acetamide]	> 10000	5710	29	8.6	8220	> 10000	724	31.7		39.9		
Cn1cc(-c2ccc3cnc(NC(=O)CN4CCN(CCF)CC4)cc3c2)cn1 [Compound 354, 2-(4-(2-Fluoroethyl)piperazin-1-yl)-N-(6-(1-methyl-1H-pyrazol-4-yl)isoquinolin-3-yl)acetamide]	346	2320	37	4.4	4990	7000	1200					
C[C@H]1CN(C)CCN1CC(=O)Nc1cc2cc(-c3cnn(C)c3)ccc2cn1 [Compound 355, (S)-2-(2,4-Dimethylpiperazin-1-yl)-N-(6-(1-methyl-1H-pyrazol-4-yl)isoquinolin-3-yl)acetamide]	6190	3510	228	6.4	8630	9130	1700					
Cn1cc(-c2ccc3cnc(NC(=O)C4CCN(CCO)CC4)cc3c2)cn1 [Compound 358, 1-(2-Hydroxyethyl)-N-(6-(1-methyl-1H-pyrazol-4-yl)isoquinolin-3-yl) piperidine-4-carboxamide]	145	413	80	0.6	2370	613	353					
Cn1cc(-c2ccc3cnc(NC(=O)C4CCN(Cc5ccccn5)CC4)cc3c2)cn1 [Compound 359, N-(6-(1-Methyl-1H-pyrazol-4-yl)isoquinolin-3-yl)-1-(pyridin-2-ylmethyl) piperidine-4-carboxamide]	127	669	82	3	261	1030	521					
Cn1cc(-c2ccc3cnc(NC(=O)C4CCN(Cc5ncco5)CC4)cc3c2)cn1 [Compound 360, N-(6-(1-Methyl-1H-pyrazol-4-yl)isoquinolin-3-yl)-1-(oxazol-2-ylmethyl) piperidine-4-carboxamide]	94	690	47	1.9	570	1170	659					
